Values joined by “and” are separate entries in the source; they are usually repeats but may differ in a detail not shown here. Equal values may be shown once. Read-outs that look alike come from different tables or passages of the source.
Tests used:
[1] = system: P. falciparum PfQRP1 mutants (G1612V, D1863Y, D1829*, D1829A); experiment: Dose-response assay on CRISPR-edited PfQRP1 mutant lines; format: cell-based, Plasmodium falciparum
Description: To generate the PfQRP1 hydrolase mutants (D1829stop and D1829A), the pDC2-Cas9-gRNA-donor plasmid was transfected into the P. falciparum Dd2 line. Donor plasmid (50 µg) containing the sgRNA ([…]) and a pfqrp1 homology region of 672 bp, centred on the D1829 residue, was used for transfection. Transfectants were selected using 5 nM WR99210 (a potent inhibitor of P. falciparum dihydrofolate reductase (DHFR) provided by Jacobus Pharmaceuticals) for 8 days, followed by culturing without drug until parasites were observed. Parasite clones were obtained using limiting dilution cloning. Confirmation of gene editing was performed with allele-specific PCR (forward primer […] and reverse primer […]) and Sanger sequencing using an internal primer ([…]).
(§1) Compound dose-response assays were performed in flat-bottom 96-well plates. Tightly synchronized ring-stage parasites were diluted to 1% parasitemia at 2% hematocrit, and incubated with a two-fold serial dilution of compounds in complete medium. Untreated parasites or uninfected RBCs were included in the assay plate as controls. Parasite growth was assessed after 72 h by lysing parasites using 2× lysis buffer consisting of 10 mM Tris-HCl, 5 mM EDTA, 0.1% w/v saponin, and 1% v/v Triton X-100, supplemented with 2× SYBR Green I (Molecular Probes). The fluorescence was measured using a FluorStar Omega v5.11 plate reader. IC50 analysis was performed using GraphPad Prism v9, and statistical significance was determined by a two-sided Mann-Whitney U test. All assays were performed in technical duplicate with at least three biological replicates, as noted in the figure legends.

[2] = system: β-hematin formation; experiment: Detergent-based β-hematin inhibition assay; format: biochemical; settings: cell-free, NP40 detergent, pH 4.8
Description: From this stock 40 μL of each was delivered to wells in the final column (column 12) of a 96-well plate together with distilled water (120 μL) and NP40 detergent (305.5 mM, 40 μL). […] A serial dilution of each compound (100 μL) from column 12 to column 2 was carried out. Column 1 served as a blank with 0 mM sample. A 25 mM hematin stock solution was prepared by sonicating hemin in DMSO for one minute and then suspending 179 μL of this in a 1 M acetate buffer (20 mL, pH 4.8). […] The plate was covered and incubated at 37°C for 5 h. […] Acetone (60 μL) was then added to assist with hematin dispersion. The UV-vis absorbance of the plate wells was read on a SpectraMax […] plate reader.

[3] = system: 3D7 parasites (hemoglobin, 'free' heme, hemozoin); experiment: Cellular heme fractionation assay; format: cell-based, Plasmodium falciparum; settings: 3D7, 0.5 – 2.5× IC50, 30 h
From the text: Cellular heme fractionation to measure the amounts of different heme species was thereafter conducted as previously described. […] Pellets were then resuspended in 1× PBS (pH 7.5) and an aliquot of the trophozoite suspension used to quantify the total number of trophozoites isolated using flow cytometry. Contents of the remaining trophozoite pellet were then released by hypotonic lysis and sonication. […] The UV−visible spectrum of each heme fraction as an Fe(III)heme−pyridine complex was measured using a multi-well plate reader (Spectramax 340PC; Molecular Devices). The total amount of each heme species was quantified using a heme standard curve whereby the mass of each heme-Fe species per trophozoite (fg/cell) was calculated by dividing the total amount of each heme species by the corresponding number of parasites in that fraction as determined by flow cytometry. Statistical comparisons and analyses for trends were made on GraphPad Prism version 10 using Students’ t-test with Welch correction. The total amount of heme obtained from each fraction was quantified using a standard curve prepared from a 100 μg/mL heme standard solution of hematin (porcine) in 0.3 M NaOH. Serial dilutions of this standard were carried out in a 96-well plate with 100 μL 0.3 M NaOH as a blank. […] The visible spectra of heme as Fe(III)heme-pyridine complex were recorded in a multi-well plate reader. The amount of heme Fe per cell was calculated by dividing the total heme Fe in each fraction by the number of cells determined in each fraction.

[4] = system: Dd2-Polδ clones C22-1.1 and C22-2.1; experiment: Dose-response assay on compound 22-selected clones (cross-resistance); format: cell-based, Plasmodium falciparum
Description: Resistance selections were performed using a mutator parasite line Dd2-Polδ with an elevated mutation rate. Three independent flasks with either 1×10^8 or 1×10^9 parasites each were treated with 5×IC50, and parasite death was monitored by microscopy (Giemsa staining). […] After eight days, compounds were removed from the media and the media was changed on alternate days. […] For recrudescent cultures, compound susceptibility was determined by dose-response assays. Parasite clones were obtained by limiting dilution and harvested for genomic DNA extraction, followed by whole-genome sequencing.
as §1

[5] = system: P. falciparum Dd2; experiment: Compound dose-response assay (72 h, SYBR Green I), Dd2; format: cell-based, Plasmodium falciparum; settings: for Selectivity index HepG2/Dd2: HepG2 72 h CC50 / Pf Dd2 IC50; for IC50: Plasmodium falciparum, DD2, 72 h, 72 h, asexual blood stage
Description: (§2) P. falciparum parasites were cultured at 3% hematocrit in RPMI 1640 (Gibco) medium consisting of 0.5% Albumax II (Gibco), 25 mM HEPES (Sigma), 0.21% sodium bicarbonate, 1x GlutaMAX (Gibco), 25 μg/mL gentamicin (Gibco). A tri-gas mixture (1% O2, 3% CO2, and 96% N2) was used for parasite cultures. Parasites were synchronized using a sorbitol and Percoll density gradient method. The following parasite strains were used: 3D7, Dd2 (MR4, MRA-156, T. Wellems), GB4 (MR4, MRA-925, T. Wellems), UG659 (P. Rosenthal), Tanzania (MR4, MRA-1169, Michal Fried), Cam/PH0212C (R. Fairhurst), and Cam3.II/ PH0306-C (R. Fairhurst). Transfection was performed using ring-stage parasites (5–8% parasitemia) using a Gene Pulser Xcell (Biorad) electroporator.
as §1

[6] = system: S. mansoni schistosomula; design: method as in Padalino et al. [13]; settings: ref Padalino et al. [13], cited from earlier work
[7] = system: P. falciparum 3D7; experiment: Compound dose-response assay (72 h, SYBR Green I), 3D7; format: cell-based, Plasmodium falciparum; settings: for Change of anti-plasmodial activity relative to compound 22: 3D7 and Dd2; for Selectivity index HepG2/3D7: HepG2 72 h CC50 / Pf 3D7 IC50; for IC50: 72 h, asexual blood stage
Description: as §2, §1

[8] = system: HepG2 cells; design: method as in Padalino et al. [13]; settings: ref Padalino et al. [13], cited from earlier work
[9] = read-out: βH Inhibition IC50, individual biological replicate
[10] = 72 h, read-out: 72 h -phenotype EC50
[11] = average of phenotype and motility, read-out: Average EC50
[12] = Plasmodium falciparum, 3D7, 72 h
[13] = HepG2, 24 h, read-out: 24 h CC50
[14] = HepG2, 72 h, read-out: 72 h CC50

Row | Compound | Effect of D1829 stop / D1829A PfQRP1 mutation on IC50 [1] | IC50 [2, 9] | Levels of 'free' heme or hemozoin relative to untreated controls [3] | Shift in IC50 in compound 22-selected clones versus parental Dd2-Polδ [4] | IC50 ([2]; mean of two biological replicates, listed as chloroquine, read-out: βH Inhibition IC50, mean) | IC50 ([2]; mean of two biological replicates, read-out: βH Inhibition IC50, mean) | Selectivity index HepG2/Dd2 [5] | IC50 [5] | EC50 [6, 10] | EC50 [6, 11] | EC50 ([6]; read-out: Motility EC50) | Change of anti-plasmodial activity relative to compound 22 [7] | Selectivity index HepG2/3D7 [7] | IC50 [7, 12] | CC50 [8, 13] | CC50 [8, 14] | IC50 [7] | Loss in potency ([7]; relative to compound 22)
1 | 2-N,3-N-bis[3-(trifluoromethyl)phenyl]quinoxaline-2,3-diamine [MMV665794] | less potent | 257 µM and 217 µM | no significant changes |  |  |  |  |  |  |  |  |  |  |  |  |  |  | 
2 | CNC(=O)CNc1cnc2ccc(-c3ccc(OC)c(OC)c3)cc2n1 [BQR695, 2-[[7-(3,4-dimethoxyphenyl)quinoxalin-2-yl]amino]-N-methylacetamide, reference compound] |  |  |  | no cross resistance |  |  |  |  |  |  |  |  |  |  |  |  |  | 
3 | CCN(CC)CCCC(C)Nc1ccnc2cc(Cl)ccc12 (stereo not shown) [Chloroquine, chloroquine] |  | 16.7 µM and 14.5 µM | significant concentration-dependent increases |  | 16 µM | 15.6 µM |  |  |  |  |  |  |  |  |  |  |  | 
4 | CC(=O)Nc1ccc2nc(Nc3ccc(Cl)c(Cl)c3)c(Nc3ccc(Cl)c(Cl)c3)nc2c1 [Compound 22c] |  |  |  |  |  |  | 25.4 | 181 nM | 3040 nM | 2910 nM | 2790 nM | greatly diminished activity | 58.1 | 79 nM | 8.6 µM | 4.59 µM |  | 
5 | O=C(Nc1ccc2nc(Nc3ccc(Cl)c(Cl)c3)c(Nc3ccc(Cl)c(Cl)c3)nc2c1)c1ccco1 [Compound 22f] |  |  |  |  |  |  | 14.9 | 382 nM | 1910 nM | 1950 nM | 2000 nM | greatly diminished activity | 19.8 | 287 ± 3.3 nM | 14.8 µM | 5.69 µM | 287 nM | 
6 | O=[N+]([O-])c1ccc2nc(Nc3cccc(Cl)c3)c(Nc3cccc(Cl)c3)nc2c1 [Compound 25] |  |  |  |  |  |  | 9.2 | 63.4 nM | 1220 nM | 1260 nM | 1300 nM |  | 10.1 | 57.7 nM | 6.76 µM | 0.58 µM |  | 
7 | O=[N+]([O-])c1ccc2nc(Nc3ccc(Cl)cc3)c(Nc3ccc(Cl)cc3)nc2c1 [Compound 26] |  |  |  |  |  |  | 3.5 | 36.8 nM | 420 nM | 410 nM | 390 nM |  | 4.3 | 29.9 nM | 13.1 µM | 0.13 µM |  | 
8 | O=[N+]([O-])c1ccc2nc(Nc3cccc(C(F)(F)F)c3)c(Nc3cccc(C(F)(F)F)c3)nc2c1 [Compound 30] |  |  |  | modest shift with one of the compound 22-resistant clones |  |  | 40.9 | 22 nM | 340 nM | 380 nM | 430 nM |  | 67.2 | 13.4 nM | 5.85 µM | 0.9 µM |  | 
9 | O=[N+]([O-])c1ccc2nc(Nc3ccc(F)c(C(F)(F)F)c3)c(Nc3ccc(F)c(C(F)(F)F)c3)nc2c1 [Compound 32] |  |  |  | modest shift with one of the compound 22-resistant clones |  |  | 24.1 | 27.8 nM | 890 nM | 720 nM | 540 nM |  | 40.4 | 16.6 nM | 7.75 µM | 0.67 µM |  | 
10 | COc1ccc(Nc2nc3ccc([N+](=O)[O-])cc3nc2Nc2ccc(OC)c(C(F)(F)F)c2)cc1C(F)(F)F [Compound 35] |  |  |  | modest shift with one of the compound 22-resistant clones |  |  | 3.8 | 112 nM | 630 nM | 660 nM | 690 nM |  | 7.4 | 57.8 nM | 5.64 µM | 0.43 µM |  | 
11 | O=[N+]([O-])c1ccc2nc(NCCc3ccccc3)c(NCCc3ccccc3)nc2c1 [Compound 37] |  |  |  |  |  |  | 17.1 | 264 nM | 2200 nM | 1840 nM | 1470 nM |  | 20.5 | 220 nM | 4.4 µM | 4.52 µM |  | ten-fold
12 | C[C@H]1Cc2c([nH]c3cc(Cl)c(F)cc23)[C@@]2(N1)C(=O)Nc1ccc(Cl)cc12 [KAE609] |  | > 500 µM |  |  |  |  |  |  |  |  |  |  |  |  |  |  |  | 
